A word on the IC50: it is the concentration needed to halve the response being measured.

Ten compounds from patent publication US11440913B2, “Aminoimidazopyridazines as kinase inhibitors” (BRISTOL-MYERS SQUIBB COMPANY, priority 2017, dated 2022) can be followed below.

Structures can show the parent of a compound that is named as a salt.

Assay [1] addresses His-GST-TVMV-hRIPK1(1-324) (Homo sapiens (Human), UniProt Q13546). Kind of assay: RIPK1 HTRF Binding Assay. The settings on record: HTRF binding, 1 h at rt; read-out: RIPK1 (IC50). Summed up: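 HTRF probe-displacement binding: 1 nM His-GST-TVMV-hRIPK1(1-324) (baculovirus construct), 90.6 nM probe, 0.2 nM anti-GST-Tb in 20 mM HEPES, 10 mM MgCl2, 0.015% Brij-35, 4 mM DTT, 0.05 mg/mL BSA. Incubated 1 h at rt; FRET 520/495 nm ratio, inhibition relative to DMSO-only wells.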
For orientation: Time-resolved FRET reads energy transfer from a long-lived donor to a nearby acceptor.

For assay [2], the system named is MLKL phosphorylation in HT29-L23 human colorectal adenocarcinoma cells. Nature of the assay: MLKL Phosphorylation High-Content Assay. Format: cell-based. The settings on record: Homo sapiens, 6 h, necroptosis induced with TNFα, SMAC mimetic and Z-VAD, read-out: pMLKL (IC50). A digest of the protocol: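 HT29-L23 cells pretreated 30 min at 37 °C with compound (6.25 to 0.106 μM final), then necroptosis induced with TNFα 35 ng/mL, SMAC mimetic 700 nM and Z-VAD 140 nM for 6 h. Fixed cells immunostained for MLKL pS358 and imaged; IC50 and Ymax from 4-parameter logistic fit.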

Sequence of His-GST-TVMV-hRIPK1(1-324) (Q13546 1-324): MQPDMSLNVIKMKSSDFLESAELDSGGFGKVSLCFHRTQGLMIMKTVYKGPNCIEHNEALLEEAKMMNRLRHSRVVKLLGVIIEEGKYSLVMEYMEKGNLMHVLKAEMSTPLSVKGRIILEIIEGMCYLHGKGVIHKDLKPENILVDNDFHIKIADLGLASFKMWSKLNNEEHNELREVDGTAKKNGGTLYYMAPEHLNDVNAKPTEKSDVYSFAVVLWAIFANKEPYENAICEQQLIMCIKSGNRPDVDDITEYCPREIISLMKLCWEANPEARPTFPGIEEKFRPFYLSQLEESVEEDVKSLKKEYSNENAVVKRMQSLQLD

Turning to `[2H]C([2H])(Oc1c(F)cc(F)cc1CNC(=O)c1cc(-c2ccc3nc(NC(=O)CC)cn3n2)cnc1OC)C1CC1` [Example 243, N-({2-[cyclopropyl(deutero)methoxy]-3,5-difluorophenyl}methyl)-2-methoxy-5-{2-propanamidoimidazo[1,2-b]pyridazin-6-yl}pyridine-3-carboxamide], the IC50 in assay [1] was 2 nM; in assay [2] it was 3 nM.

As for `[2H]C([2H])(NC(=O)c1cc(-c2ccc3nc(NC(=O)CC)cn3n2)cnc1OC)c1cc(OC(F)(F)F)ccc1F` [Example 244, N-{[2-fluoro-5-(trifluoromethoxy)phenyl](deutero)methyl}-2-methoxy-5-{2-propanamidoimidazo[1,2-b]pyridazin-6-yl}pyridine-3-carboxamide], the 50% inhibitory concentration (IC50) in assay [1] was 257 nM; in assay [2] it was 4 nM.

In the case of `CCC(=O)Nc1cn2nc(-c3cnc(OC)c(C(=O)N[C@H](C)c4cc(OC(F)(F)F)ccc4F)c3)ccc2n1` [Example 245, N-[(1R)-1-[2-fluoro-5-(trifluoromethoxy)phenyl]ethyl]-2-methoxy-5-{2-propanamidoimidazo[1,2-b]pyridazin-6-yl}pyridine-3-carboxamide], the IC50 in assay [1] came to 486 nM; in assay [2] it was 132 nM.

Regarding `CCC(=O)Nc1cn2nc(-c3cnc(OC)c(C(=O)NCC[C@H](O)c4ccc(Cl)cc4)c3)ccc2n1` [Example 246, N-[(3S)-3-(4-chlorophenyl)-3-hydroxypropyl]-2-methoxy-5-{2-propanamidoimidazo[1,2-b]pyridazin-6-yl}pyridine-3-carboxamide], the results for the IC50 in assay [1] and in assay [2] were 92 nM and 105 nM, respectively.

`CCC(=O)Nc1cn2nc(-c3cnc(OC)c(C(=O)NCc4cc(F)cc(F)c4OC4CCOCC4)c3)ccc2n1` [Example 247, N-{[3,5-difluoro-2-(oxan-4-yloxy)phenyl]methyl}-2-methoxy-5-{2-propanamidoimidazo[1,2-b]pyridazin-6-yl}pyridine-3-carboxamide]: the IC50 in assay [1] and in assay [2] was 2 nM each time.

`CCC(=O)Nc1cn2nc(-c3cnc(OC)c(C(=O)NCc4ccccc4OC(F)(F)F)c3)ccc2n1` [Example 248, 2-methoxy-5-{2-propanamidoimidazo[1,2-b]pyridazin-6-yl}-N-{[2-(trifluoromethoxy)phenyl]methyl}pyridine-3-carboxamide, TFA]: the IC50 in assay [1] is 13 nM; in assay [2], 55 nM.

For the compound `CCC(=O)Nc1cn2nc(-c3cnc(OC)c(C(=O)NCc4ccc(F)c(F)c4OCC4CC4)c3)ccc2n1` [Example 249, N-{[2-(cyclopropylmethoxy)-3,4-difluorophenyl]methyl}-2-methoxy-5-{2-propanamidoimidazo[1,2-b]pyridazin-6-yl}pyridine-3-carboxamide], the IC50 is 29 nM in assay [1] and 132 nM in assay [2].

With `CCC(=O)Nc1cn2nc(-c3cnc(OC)c(C(=O)NCc4cc(OCC5CC5)ccc4F)c3)ccc2n1` [Example 250, N-{[5-(cyclopropylmethoxy)-2-fluorophenyl]methyl}-2-methoxy-5-{2-propanamidoimidazo[1,2-b]pyridazin-6-yl}pyridine-3-carboxamide], the IC50 in assay [1] was 18 nM; in assay [2] it was 61 nM.

As for `CC(=O)Nc1nc2ccc(-c3cnc(C)c(C(=O)NCc4cccc(OC(F)(F)F)c4)c3)nn2c1C` [Example 251, 5-{2-acetamido-3-methylimidazo[1,2-b]pyridazin-6-yl}-2-methyl-N-{[3-(trifluoromethoxy)phenyl]methyl}pyridine-3-carboxamide], the IC50 in assay [1] turned out to be 53 nM; in assay [2] it was 305 nM.

As to `CC(=O)Nc1nc2ccc(-c3cnc(C)c(C(=O)NCc4cc(C(F)(F)F)ccc4F)c3)nn2c1C` [Example 252, 5-{2-acetamido-3-methylimidazo[1,2-b]pyridazin-6-yl}-N-{[2-fluoro-5-(trifluoromethyl)phenyl]methyl}-2-methylpyridine-3-carboxamide], the IC50 in assay [1] worked out at 27 nM; in assay [2] it was 133 nM.
